Experimental data: US8735584B2 (Merck Patent GmbH, priority 2008, dated 2014)

Tests used:
Assay type in all cases: biochemical
AKT1 = target: T1, AKT1 (Homo sapiens, UniProt P31749); assay: Desktop Profiler kinase panel, AKT1; conditions: 10 micromolar concentration of the compound; read-out: Percent Inhibition AKT1
T1 construct: purchased Caliper Life Sciences
Protocol: (§1) The Aurora assays described here are performed on two Caliper Life Sciences systems: the LC3000 and the Desktop Profiler. These provide data on enzyme activity via measurement of the relative amounts of phosphorylated or unphosphorylated fluorescently labelled substrate peptide at the end of an enzymatic reaction. These different states of peptide are resolved by applying a potential difference across the sample. The presence of the charged phosphate group on the product (as opposed to the substrate) causes a different peptide mobility between the two peptides. This is visualized by excitation of the fluorescent label on the substrate and product peptides and represented as peaks within the analysis software.
(§2) The Desktop Profiler utilizes the same principle as the LC3000 for calculating percentage conversion of a substrate to product. Caliper Life Sciences provides proprietary flash frozen pre-made 384 well plates containing selected kinases. Each column in the 384 well plate contains a particular selected kinase. A second plate, the ‘substrate plate’ contains a mix of fluorescently labeled peptide substrate and ATP. […]
(§3) Reading of the plate in the Profiler is identical to the LC3000, and the ratio between substrate and product peaks provides the activity of the enzyme in that well. […]

AurA = target: T2, AurA (Homo sapiens, UniProt O14965); assay: Desktop Profiler kinase panel, AurA; conditions: 10 micromolar concentration of the compound; read-out: Percent Inhibition AurA
T2 construct: purchased Caliper Life Sciences
T2 sequence (O14965 1-403): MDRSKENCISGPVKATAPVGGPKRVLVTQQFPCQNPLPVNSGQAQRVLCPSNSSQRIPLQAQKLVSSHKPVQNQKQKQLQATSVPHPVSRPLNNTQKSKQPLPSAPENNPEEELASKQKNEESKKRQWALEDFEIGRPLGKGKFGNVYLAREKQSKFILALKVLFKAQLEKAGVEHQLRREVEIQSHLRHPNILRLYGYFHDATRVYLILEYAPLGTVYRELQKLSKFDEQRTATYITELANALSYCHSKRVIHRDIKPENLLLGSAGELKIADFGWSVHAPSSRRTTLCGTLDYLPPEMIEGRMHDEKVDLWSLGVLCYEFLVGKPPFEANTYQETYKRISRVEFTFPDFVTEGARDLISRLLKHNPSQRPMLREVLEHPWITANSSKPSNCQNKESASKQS
In short: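 Pre-plated frozen kinases received compound at a single concentration, then a premixed fluorescent peptide substrate/ATP mix; 90 min at 25 C, stopped with EDTA buffer (pH 7.5). Mobility-shift electrophoresis resolved phosphorylated from unphosphorylated peptide; percent inhibition calculated versus no-inhibitor and no-ATP controls.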

Erk1 = target: T3, Erk1 (Homo sapiens, UniProt P27361); assay: Desktop Profiler kinase panel, Erk1; conditions: 10 micromolar concentration of the compound; read-out: Percent Inhibition Erk1
T3 construct: purchased Caliper Life Sciences
T3 sequence (P27361 whole entry, species assumed): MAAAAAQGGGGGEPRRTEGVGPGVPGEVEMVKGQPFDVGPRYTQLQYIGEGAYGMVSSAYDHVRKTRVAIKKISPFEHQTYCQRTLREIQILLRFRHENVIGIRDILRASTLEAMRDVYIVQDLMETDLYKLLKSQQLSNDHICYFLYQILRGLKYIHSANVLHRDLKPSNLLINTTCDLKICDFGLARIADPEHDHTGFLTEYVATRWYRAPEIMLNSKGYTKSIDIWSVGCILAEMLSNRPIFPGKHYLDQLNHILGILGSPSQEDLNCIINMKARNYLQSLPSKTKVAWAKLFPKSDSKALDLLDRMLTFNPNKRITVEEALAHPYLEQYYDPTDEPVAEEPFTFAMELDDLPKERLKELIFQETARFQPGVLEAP
Protocol: as §1, §2, §3

Erk2 = target: T4, Erk2 (Homo sapiens, UniProt P28482); assay: Desktop Profiler kinase panel, Erk2; conditions: 10 micromolar concentration of the compound; read-out: Percent Inhibition Erk2
T4 construct: purchased Caliper Life Sciences
T4 sequence (P28482 whole entry, species assumed): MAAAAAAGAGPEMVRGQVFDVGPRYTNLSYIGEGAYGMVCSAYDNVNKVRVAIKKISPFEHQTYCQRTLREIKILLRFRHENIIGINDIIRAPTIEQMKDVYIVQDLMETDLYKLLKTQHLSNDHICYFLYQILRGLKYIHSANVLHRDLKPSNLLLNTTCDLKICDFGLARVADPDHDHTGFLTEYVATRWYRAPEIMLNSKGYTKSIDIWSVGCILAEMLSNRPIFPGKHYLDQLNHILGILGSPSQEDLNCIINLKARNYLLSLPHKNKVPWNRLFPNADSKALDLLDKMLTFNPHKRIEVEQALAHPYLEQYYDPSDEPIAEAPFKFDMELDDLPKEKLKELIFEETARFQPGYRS
Protocol: as §1, §2, §3

LCK = target: T5, LCK (Homo sapiens, UniProt P06239); assay: Desktop Profiler kinase panel, LCK; conditions: 10 micromolar concentration of the compound; read-out: Percent Inhibition LCK
T5 construct: purchased Caliper Life Sciences
T5 sequence (P06239 whole entry, species assumed): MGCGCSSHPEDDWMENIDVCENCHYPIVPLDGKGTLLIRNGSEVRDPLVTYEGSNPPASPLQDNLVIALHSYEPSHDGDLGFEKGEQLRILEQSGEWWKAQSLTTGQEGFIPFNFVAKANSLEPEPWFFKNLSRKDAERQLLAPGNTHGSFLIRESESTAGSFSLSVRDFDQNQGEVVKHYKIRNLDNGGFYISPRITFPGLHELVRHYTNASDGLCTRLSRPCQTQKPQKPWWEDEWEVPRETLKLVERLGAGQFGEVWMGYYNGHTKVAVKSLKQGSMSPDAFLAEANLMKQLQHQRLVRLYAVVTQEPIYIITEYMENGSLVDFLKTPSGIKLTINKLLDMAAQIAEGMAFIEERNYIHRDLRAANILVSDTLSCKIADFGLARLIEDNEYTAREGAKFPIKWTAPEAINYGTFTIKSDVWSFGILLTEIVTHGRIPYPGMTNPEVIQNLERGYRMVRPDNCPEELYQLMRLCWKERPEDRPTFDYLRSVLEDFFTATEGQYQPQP
Protocol: as §1
(§4) The Desktop Profiler utilizes the same principle as the LC3000 for calculating percentage conversion of a substrate to product. Caliper Life Sciences provides proprietary flash frozen pre-made 384 well plates containing selected kinases. Each column in the 384 well plate contains a particular selected kinase. A second plate, the ‘substrate plate’ contains a mix of fluorescently labeled peptide substrate and ATP. These are arranged in columns so that transfer for substrate plate to enzyme plate provides the correct enzyme with the correct substrate/ATP concentration. Compounds are added to a thawed enzyme plate in the desired format, in single concentrations. Reactions are initiated by transfer of the substrate/ATP mix from the substrate plate. The enzyme plate is incubated for 90 mins at 25 C. The reaction is stopped by addition of 70 ul of Stop Buffer (100 mM HEPES pH 7.5, 0.015% Brij-35, 10 mM EDTA (Sigma, E7889)).
(§5) Reading of the plate in the Profiler is identical to the LC3000, and the ratio between substrate and product peaks provides the activity of the enzyme in that well. This is best represented by a plate heat map which colors each well by percent inhibition as compared to positive and negative controls (no inhibitors and no ATP respectively).
In the following Tables 3a-4-b, which show the results of the desktop profiler measurements, “+” means 50-70% inhibition, “++” means 70-90% inhibition, and “+++” means >90% inhibition. The enzymes tested for profiling were ABL, AKT1, AKT2, AurA, CHK1, CHK2, CK1d, Erk1, Erk2, FYN, GSK3b, INSR, LCK, LYN, MAPKAPK2, MET, MSK1, p38a, PKA, PKCz, PKD2, PRAK, RSK1 and SRC.

MAPKAPK2 = target: T6, MAPKAPK2 (Homo sapiens, UniProt P49137); assay: Desktop Profiler kinase panel, MAPKAPK2; conditions: 10 micromolar concentration of the compound; read-out: Percent Inhibition MAPKAPK2
T6 construct: purchased Caliper Life Sciences
T6 sequence (P49137 whole entry, species assumed): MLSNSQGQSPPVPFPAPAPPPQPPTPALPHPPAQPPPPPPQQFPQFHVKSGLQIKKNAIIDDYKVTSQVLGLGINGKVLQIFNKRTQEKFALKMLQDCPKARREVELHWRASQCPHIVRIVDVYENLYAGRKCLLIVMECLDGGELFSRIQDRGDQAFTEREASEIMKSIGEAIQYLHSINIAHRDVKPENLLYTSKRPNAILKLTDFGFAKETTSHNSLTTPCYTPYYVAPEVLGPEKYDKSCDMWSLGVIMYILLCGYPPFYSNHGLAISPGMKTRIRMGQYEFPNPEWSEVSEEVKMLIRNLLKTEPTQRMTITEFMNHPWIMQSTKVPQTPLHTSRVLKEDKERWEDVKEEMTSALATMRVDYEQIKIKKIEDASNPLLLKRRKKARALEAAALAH
Protocol: as §1, §2, §3

MET = target: T7, MET (Homo sapiens, UniProt P08581); assay: Desktop Profiler kinase panel, MET; conditions: 10 micromolar concentration of the compound; read-out: Percent Inhibition MET
T7 construct: purchased Caliper Life Sciences
T7 sequence (P08581 25-1390): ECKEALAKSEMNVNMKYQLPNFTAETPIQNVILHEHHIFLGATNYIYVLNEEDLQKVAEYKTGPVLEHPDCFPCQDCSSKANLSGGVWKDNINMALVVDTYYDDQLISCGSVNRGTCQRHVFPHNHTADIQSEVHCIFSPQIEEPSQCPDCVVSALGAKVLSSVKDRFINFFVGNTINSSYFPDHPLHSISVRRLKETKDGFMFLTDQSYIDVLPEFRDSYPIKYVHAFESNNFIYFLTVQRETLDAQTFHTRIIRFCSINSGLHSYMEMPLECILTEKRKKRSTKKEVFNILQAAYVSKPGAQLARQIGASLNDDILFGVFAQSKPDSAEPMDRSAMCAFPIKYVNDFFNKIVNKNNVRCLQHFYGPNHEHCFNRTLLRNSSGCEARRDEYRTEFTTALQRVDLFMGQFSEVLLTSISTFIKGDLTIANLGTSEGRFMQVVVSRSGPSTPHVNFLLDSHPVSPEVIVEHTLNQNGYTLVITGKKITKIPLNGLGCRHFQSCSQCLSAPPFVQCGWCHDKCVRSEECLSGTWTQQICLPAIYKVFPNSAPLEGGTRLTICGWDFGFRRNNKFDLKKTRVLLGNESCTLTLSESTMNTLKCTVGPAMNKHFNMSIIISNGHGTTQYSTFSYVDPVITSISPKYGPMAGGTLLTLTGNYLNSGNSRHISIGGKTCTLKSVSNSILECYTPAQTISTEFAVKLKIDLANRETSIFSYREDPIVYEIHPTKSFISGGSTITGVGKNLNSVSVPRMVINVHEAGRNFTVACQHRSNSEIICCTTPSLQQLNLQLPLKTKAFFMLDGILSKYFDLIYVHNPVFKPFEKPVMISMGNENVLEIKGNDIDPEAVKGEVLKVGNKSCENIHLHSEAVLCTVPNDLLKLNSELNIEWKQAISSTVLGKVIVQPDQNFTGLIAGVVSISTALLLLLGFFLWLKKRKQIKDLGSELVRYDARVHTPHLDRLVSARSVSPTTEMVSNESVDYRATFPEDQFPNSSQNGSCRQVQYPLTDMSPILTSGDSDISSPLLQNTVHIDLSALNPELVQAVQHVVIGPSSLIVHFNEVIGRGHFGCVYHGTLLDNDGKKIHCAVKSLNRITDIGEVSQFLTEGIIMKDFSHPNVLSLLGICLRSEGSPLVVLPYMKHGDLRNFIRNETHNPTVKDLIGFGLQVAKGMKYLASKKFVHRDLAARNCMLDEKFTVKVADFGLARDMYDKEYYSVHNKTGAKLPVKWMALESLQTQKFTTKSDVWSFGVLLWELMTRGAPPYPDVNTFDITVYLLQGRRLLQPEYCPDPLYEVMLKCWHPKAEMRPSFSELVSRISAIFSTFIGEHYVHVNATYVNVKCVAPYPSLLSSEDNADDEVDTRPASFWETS
Protocol: as §1, §2, §3

p38a = target: T8, p38a (Homo sapiens, UniProt Q16539); assay: Desktop Profiler kinase panel, p38a; conditions: 10 micromolar concentration of the compound; read-out: Percent Inhibition p38a
T8 construct: purchased Caliper Life Sciences
T8 sequence (Q16539 whole entry): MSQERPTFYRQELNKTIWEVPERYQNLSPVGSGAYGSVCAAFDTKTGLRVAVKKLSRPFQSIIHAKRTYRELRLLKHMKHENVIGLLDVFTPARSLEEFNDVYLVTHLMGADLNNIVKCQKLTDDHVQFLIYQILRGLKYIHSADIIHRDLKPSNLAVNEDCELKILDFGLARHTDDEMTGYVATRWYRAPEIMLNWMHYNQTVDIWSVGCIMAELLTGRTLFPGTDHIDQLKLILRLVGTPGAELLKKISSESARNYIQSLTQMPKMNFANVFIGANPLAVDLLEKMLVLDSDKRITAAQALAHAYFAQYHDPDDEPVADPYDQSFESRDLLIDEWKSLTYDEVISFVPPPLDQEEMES
Protocol: as §1, §2, §3

PKCz = target: T9, PKCz (Homo sapiens, UniProt Q05513); assay: Desktop Profiler kinase panel, PKCz; conditions: 10 micromolar concentration of the compound; read-out: Percent Inhibition PKCz
T9 construct: purchased Caliper Life Sciences
T9 sequence (Q05513 whole entry): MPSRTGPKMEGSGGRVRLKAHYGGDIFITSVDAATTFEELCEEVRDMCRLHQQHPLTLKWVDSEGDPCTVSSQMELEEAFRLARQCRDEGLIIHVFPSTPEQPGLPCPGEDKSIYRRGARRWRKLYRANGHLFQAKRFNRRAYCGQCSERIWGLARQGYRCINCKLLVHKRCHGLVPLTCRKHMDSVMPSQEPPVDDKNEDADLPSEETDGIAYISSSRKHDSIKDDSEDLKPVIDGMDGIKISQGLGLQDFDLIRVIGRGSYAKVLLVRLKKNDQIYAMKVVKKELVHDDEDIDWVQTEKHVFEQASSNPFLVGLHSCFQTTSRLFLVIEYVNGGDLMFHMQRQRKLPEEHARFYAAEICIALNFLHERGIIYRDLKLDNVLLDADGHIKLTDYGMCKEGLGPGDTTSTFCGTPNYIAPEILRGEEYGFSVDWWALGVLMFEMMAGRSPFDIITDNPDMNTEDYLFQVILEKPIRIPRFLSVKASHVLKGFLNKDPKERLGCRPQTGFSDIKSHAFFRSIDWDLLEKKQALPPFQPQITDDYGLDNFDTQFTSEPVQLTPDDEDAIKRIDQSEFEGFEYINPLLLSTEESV
Protocol: as §1, §2, §3

PRAK = target: T10, PRAK (Homo sapiens, UniProt Q8IW41); assay: Desktop Profiler kinase panel, PRAK; conditions: 10 micromolar concentration of the compound; read-out: Percent Inhibition PRAK
T10 construct: purchased Caliper Life Sciences
T10 sequence (Q8IW41 1-473): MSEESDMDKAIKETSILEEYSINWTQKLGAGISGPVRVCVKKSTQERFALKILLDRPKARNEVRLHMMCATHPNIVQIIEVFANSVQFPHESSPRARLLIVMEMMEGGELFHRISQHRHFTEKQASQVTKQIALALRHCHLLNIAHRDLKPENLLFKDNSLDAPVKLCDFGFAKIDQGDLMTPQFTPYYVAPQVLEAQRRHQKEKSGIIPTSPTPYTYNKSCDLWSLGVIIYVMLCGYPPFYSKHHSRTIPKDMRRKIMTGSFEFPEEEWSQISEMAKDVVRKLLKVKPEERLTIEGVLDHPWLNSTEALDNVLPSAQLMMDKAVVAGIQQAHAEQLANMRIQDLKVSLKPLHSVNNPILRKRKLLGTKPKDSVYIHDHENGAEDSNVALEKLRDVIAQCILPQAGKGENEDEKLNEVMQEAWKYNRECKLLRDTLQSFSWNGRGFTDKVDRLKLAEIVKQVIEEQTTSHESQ
Protocol: as §1, §4
as §5, with “respectively). […]” for “respectively).”

T1 sequence (P31749 whole entry, species assumed): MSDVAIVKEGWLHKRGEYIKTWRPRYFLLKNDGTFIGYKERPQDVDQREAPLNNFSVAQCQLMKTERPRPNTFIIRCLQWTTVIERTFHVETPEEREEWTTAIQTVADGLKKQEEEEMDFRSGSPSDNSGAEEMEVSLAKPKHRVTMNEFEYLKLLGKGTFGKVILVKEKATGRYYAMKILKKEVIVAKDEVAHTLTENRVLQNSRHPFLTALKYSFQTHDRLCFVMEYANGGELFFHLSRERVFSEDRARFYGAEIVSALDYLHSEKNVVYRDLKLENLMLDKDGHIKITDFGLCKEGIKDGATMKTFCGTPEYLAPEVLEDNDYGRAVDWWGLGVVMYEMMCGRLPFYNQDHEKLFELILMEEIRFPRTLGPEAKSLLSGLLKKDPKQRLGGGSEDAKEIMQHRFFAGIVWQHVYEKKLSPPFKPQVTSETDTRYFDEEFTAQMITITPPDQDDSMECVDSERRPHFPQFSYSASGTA

inhibition at 10 µM (AKT1) [%] | inhibition at 10 µM (AurA) [%] | inhibition at 10 µM (Erk1) [%] | inhibition at 10 µM (Erk2) [%] | inhibition at 10 µM (LCK) [%] | inhibition at 10 µM (MAPKAPK2) [%] | inhibition at 10 µM (MET) [%] | inhibition at 10 µM (p38a) [%] | inhibition at 10 µM (PKCz) [%] | inhibition at 10 µM (PRAK) [%] | SMILES
> 90 | > 90 | 70 to 90 | 70 to 90 | > 90 | 50 to 70 | > 90 | 50 to 70 | 50 to 70 | 70 to 90 | CC(=O)Nc1ccc(Oc2ccc3c(=O)[nH]c4ncccc4c3c2)cc1 [Example 81, N-[4-(6-Oxo-5,6-dihydro-benzo[c][1,8]naphthyridin-9-yloxy)-phenyl]-acetamide]
70 to 90 | > 90 | 70 to 90 | 70 to 90 | > 90 | – | – | – | – | 70 to 90 | O=c1[nH]c2ncccc2c2cc(Nc3cccc(F)c3)ccc12 [Example 31, 9-(3-Fluoro-phenylamino)-5H-benzo[c][1,8]naphthyridin-6-one]
– | > 90 | – | – | – | > 90 | – | – | – | > 90 | NC(=O)c1ccc(Oc2ccc3c(=O)[nH]c4ncccc4c3c2)cc1 [Example 82]
